The values below come from patent publication US20230063462A1, “SULFONIMIDAMIDE COMPOUNDS AND COMPOSITIONS FOR TREATING CONDITIONS ASSOCIATED WITH NLRP ACTIVITY” (NOVARTIS AG, priority 2019, published 2023).

This test concerns THP-1 cells. The experiment in a line: hTHP-1 assay: gramicidin-stimulated IL-1β detection in PMA-treated THP-1 cells. Format: cell-based, human. Particulars: Table B2, 10% FBS.

The term IC50 denotes the concentration needed to halve the response being measured. A lower IC50 goes with inhibition by little substance. In the case of `C[C@@H]1CCc2c1nc1c(c2NC(=O)N=S(N)(=O)c2ccn(C3CC3)n2)CCC1` (single isomer, unassigned) [Example 888, (R) or (S)-1-cyclopropyl-N′-(((R)-3-methyl-1,2,3,5,6,7-hexahydrodicyclopenta [b,e]pyridin-8-yl)carbamoyl)-1H-pyrazole-3-sulfonimidamide], the IC50 reads like this: (class symbol) 40 to 200 nM; (numeric value) 49.4 nM.

As for `C[C@H](O)Cn1cc(F)c(S(N)(=O)=NC(=O)Nc2c3c(nc4c2CCC42CC2)CCC3)n1` (single isomer, unassigned) [Example 896, (R) or (S)-4-fluoro-1-((S)-2-hydroxypropyl)-N′-((1′,5′,6′,7′-tetrahydro-2′H-spiro [cyclopropane-1,3′-dicyclopenta[b,e]pyridin]-8′-yl)carbamoyl)-1H-pyrazole-3-sulfonimidamide], the IC50 is, setting by setting: (class symbol) 8 to 40 nM; (numeric value) 13.6 nM.

Take `Cc1c(C(F)(F)F)nc2c(c1NC(=O)N=S(N)(=O)c1ccn(C3CC3)n1)CCC2` (single isomer, unassigned) [Example 890, (R) or (S)-1-cyclopropyl-N′-((3-methyl-2-(trifluoromethyl)-6,7-dihydro-5H-cyclopenta [b]pyridin-4-yl)carbamoyl)-1H-pyrazole-3-sulfonimidamide]: the 50% inhibitory concentration (IC50) reads like this: (class symbol) 40 to 200 nM; (numeric value) 108 nM.

Compound `C[C@@H]1CCc2c1nc1c(c2NC(=O)N=S(N)(=O)c2ccn(C3CC3)n2)CCC1` (single isomer, unassigned) [Example 889, (S) or (R)-1-cyclopropyl-N′-(((R)-3-methyl-1,2,3,5,6,7-hexahydrodicyclopenta [b,e]pyridin-8-yl)carbamoyl)-1H-pyrazole-3-sulfonimidamide] returned a half-inhibitory concentration (IC50) (class symbol) of 1000 to 5000 nM and a concentration for half-maximal inhibition (IC50) (numeric value) of 1670 nM.

Consider `NS(=O)(=NC(=O)Nc1c2c(nc3c1CCC3)CCC2)c1ccn(C2CC2)n1` (single isomer, unassigned) [Example 887, (S) or (R)-1-cyclopropyl-N′-((1,2,3,5,6,7-hexahydrodicyclopenta [b,e]pyridin-8-yl)carbamoyl)-1H-pyrazole-3-sulfonimidamide], for which the half-inhibitory concentration (IC50) is 5000 to 30000 nM (class symbol) and 5880 nM (numeric value).

In the case of `C[C@H](O)Cn1cc(F)c(S(N)(=O)=NC(=O)Nc2c3c(nc4c2CCC42CC2)CCC3)n1` (single isomer, unassigned) [Example 897, (S) or (R)-4-fluoro-1-((S)-2-hydroxypropyl)-N′-((1′,5′,6′,7′-tetrahydro-2′H-spiro [cyclopropane-1,3′-dicyclopenta[b,e]pyridin]-8′-yl)carbamoyl)-1H-pyrazole-3-sulfonimidamide], the IC50 was 200 to 1000 nM (class symbol) and 310 nM (numeric value).

Consider `NS(=O)(=NC(=O)Nc1c2c(nc3c1CCC31CC1)CCC2)c1ccn(C2CC2)n1` (single isomer, unassigned) [Example 884, (R) or (S)-1-cyclopropyl-N′-((1′,5′,6′,7′-tetrahydro-2′H-spiro[cyclopropane-1,3′-dicyclopenta[b,e]pyridin]-8′-yl)carbamoyl)-1H-pyrazole-3-sulfonimidamide], for which the concentration for half-maximal inhibition (IC50) by setting is: (class symbol) 40 to 200 nM; (numeric value) 53.3 nM.

For `C[C@@H](O)Cn1cc(F)c(S(N)(=O)=NC(=O)Nc2c3c(nc4c2CCC42CC2)CCC3)n1` (single isomer, unassigned) [Example 893, (S) or (R)-4-fluoro-1-((R)-2-hydroxypropyl)-N′-((1′,5′,6′,7′-tetrahydro-2′H-spiro [cyclopropane-1,3′-dicyclopenta[b,e]pyridin]-8′-yl)carbamoyl)-1H-pyrazole-3-sulfonimidamide], the concentration for half-maximal inhibition (IC50) reads like this: (class symbol) 200 to 1000 nM; (numeric value) 679 nM.

As to `NS(=O)(=NC(=O)Nc1c2c(nc(C3CC3)c1C1CC1)CCC2)c1nn(C2CC2)cc1F` (single isomer, unassigned) [Example 882, (R) or (S)-1-cyclopropyl-N′-((2,3-dicyclopropyl-6,7-dihydro-5H-cyclopenta[b]pyridin-4-yl)carbamoyl)-4-fluoro-1H-pyrazole-3-sulfonimidamide], the IC50 by setting is: (class symbol) 40 to 200 nM; (numeric value) 102 nM.

Regarding `NS(=O)(=NC(=O)Nc1c2c(nc(C3CC3)c1C1CC1)CCC2)c1ccn(C2CC2)n1` (single isomer, unassigned) [Example 878, (R) or (S)-1-cyclopropyl-N′-((2,3-dicyclopropyl-6,7-dihydro-5H-cyclopenta[b]pyridin-4-yl)carbamoyl)-1H-pyrazole-3-sulfonimidamide], the IC50 runs as follows: (class symbol) 40 to 200 nM; (numeric value) 88 nM.

Take `NS(=O)(=NC(=O)Nc1c2c(nc3c1CCC31CC1)CCC2)c1ccn(C2CC2)n1` (single isomer, unassigned) [Example 885, (S) or (R)-1-cyclopropyl-N′-((1′,5′,6′,7′-tetrahydro-2′H-spiro[cyclopropane-1,3′-dicyclopenta[b,e]pyridin]-8′-yl)carbamoyl)-1H-pyrazole-3-sulfonimidamide]: the IC50 is, setting by setting: (class symbol) 1000 to 5000 nM; (numeric value) 2260 nM.

Consider `NS(=O)(=NC(=O)Nc1c2c(nc3c1CCC3)CCC2)c1ccn(C2CC2)n1` (single isomer, unassigned) [Example 886, (R) or (S)-1-cyclopropyl-N′-((1,2,3,5,6,7-hexahydrodicyclopenta [b,e]pyridin-8-yl)carbamoyl)-1H-pyrazole-3-sulfonimidamide], for which the IC50 was 200 to 1000 nM (class symbol) and 270 nM (numeric value).

As to `Cc1c(C(F)(F)F)nc2c(c1NC(=O)N=S(N)(=O)c1ccn(C3CC3)n1)CCC2` (single isomer, unassigned) [Example 891, (S) or (R)-1-cyclopropyl-N′-((3-methyl-2-(trifluoromethyl)-6,7-dihydro-5H-cyclopenta [b]pyridin-4-yl)carbamoyl)-1H-pyrazole-3-sulfonimidamide], the concentration for half-maximal inhibition (IC50) is, setting by setting: (class symbol) 5000 to 30000 nM; (numeric value) 6510 nM.

In the case of `C[C@@H](O)Cn1cc(F)c(S(N)(=O)=NC(=O)Nc2c3c(nc4c2CCC42CC2)CCC3)n1` (single isomer, unassigned) [Example 892, (R) or (S)-4-fluoro-1-((R)-2-hydroxypropyl)-N′-((1′,5′,6′,7′-tetrahydro-2′H-spiro [cyclopropane-1,3′-dicyclopenta[b,e]pyridin]-8′-yl)carbamoyl)-1H-pyrazole-3-sulfonimidamide], the IC50 is, setting by setting: (class symbol) 8 to 40 nM; (numeric value) 12.7 nM.

In the case of `NS(=O)(=NC(=O)Nc1c2c(nc(C(F)(F)F)c1C1CC1)CCC2)c1nn(C2CC2)cc1F` (single isomer, unassigned) [Example 880, (R) or (S)-1-cyclopropyl-N′-((3-cyclopropyl-2-(trifluoromethyl)-6,7-dihydro-5H-cyclopenta [b]pyridin-4-yl)carbamoyl)-4-fluoro-1H-pyrazole-3-sulfonimidamide], the half-inhibitory concentration (IC50) by setting is: (class symbol) 40 to 200 nM; (numeric value) 53.9 nM.

`NS(=O)(=NC(=O)Nc1c2c(nc(C(F)(F)F)c1C1CC1)CCC2)c1nn(C2CC2)cc1F` (single isomer, unassigned) [Example 881, (S) or (R)-1-cyclopropyl-N′-((3-cyclopropyl-2-(trifluoromethyl)-6,7-dihydro-5H-cyclopenta [b]pyridin-4-yl)carbamoyl)-4-fluoro-1H-pyrazole-3-sulfonimidamide] registered a half-maximal inhibitory concentration (IC50) (class symbol) of 1000 to 5000 nM and an IC50 (numeric value) of 1410 nM.

For `NS(=O)(=NC(=O)Nc1c2c(nc(C3CC3)c1C1CC1)CCC2)c1nn(C2CC2)cc1F` (single isomer, unassigned) [Example 883, (S) or (R)-1-cyclopropyl-N′-((2,3-dicyclopropyl-6,7-dihydro-5H-cyclopenta[b]pyridin-4-yl)carbamoyl)-4-fluoro-1H-pyrazole-3-sulfonimidamide], the IC50 (class symbol) was in the range of 1000 to 5000 nM and half-maximal inhibition (numeric value) (IC50) required 1250 nM.

For the compound `NS(=O)(=NC(=O)Nc1c2c(nc(C3CC3)c1C1CC1)CCC2)c1ccn(C2CC2)n1` (single isomer, unassigned) [Example 879, (S) or (R)-1-cyclopropyl-N′-((2,3-dicyclopropyl-6,7-dihydro-5H-cyclopenta[b]pyridin-4-yl)carbamoyl)-1H-pyrazole-3-sulfonimidamide], the IC50 runs as follows: (class symbol) 1000 to 5000 nM; (numeric value) 4430 nM.
